What was measured:
Type in all cases: functional, cell-based
[1] = tested on: RPMI-8226; assay: Compound was tested for potency against human myeloma 8226 cells (40 fold resistant to doxorubicin).
[2] = tested on: A549; assay: Compound was tested for potency against human lung A549 cells using sulforhodamine B assay.
[3] = tested on: L1210; assay: Compound was tested for potency against multi drug resistant murine leukemia L1210 cells.; settings: Mus musculus
[4] = tested on: L1210; assay: Compound was tested for potency against multidrug-resistant murine leukemia L1210 cells; settings: Mus musculus
[5] = tested on: RPMI-8226; assay: Compound was tested for potency against human myeloma 8226 cells using MTT assay method.
[6] = tested on: WiDr; assay: Compound was tested for potency against human colon carcinoma WiDr cells in a sulforhodamine B assay.
[7] = tested on: SW480; assay: Compound was tested for potency against human colon carcinoma SW 480 cells in a sulforhodamine B assay.
[8] = tested on: A549; assay: Compound was tested for potency against human lung A549 cells using sulforhodamine B assay; UA=Potency was so low that the IC50 was unachievable.
[9] = tested on: SW480; assay: Compound was tested for potency against human colon carcinoma SW 480 cells in a sulforhodamine B assay; UA=Potency was so low that the IC50 was unachievable.

Compound `CN(C)CCNC(=O)c1c2ccccc2c(C(=O)NCCN(C)C)c2ccccc12` has an IC50 [1] greater than 10 µM, an IC50 [2] of 99 µM and an IC50 [3] of 140 µM. It also gave an IC50 [4] of 44 µM, an IC50 [5] greater than 10 µM and an IC50 [6] of 26 µM. It also gave an IC50 [7] of 44 µM.

In the case of `C(=N\NC1=NCCN1)/c1c2ccccc2c(/C=N/NC2=NCCN2)c2ccccc12` [BISANTRENE], the IC50 [1] is reported as 9.1 µM, the IC50 [2] is reported as 0.017 µM and the IC50 [3] is reported as 3.2 µM. For the same compound, the IC50 [4] was 0.049 µM, the IC50 [5] was 0.018 µM and the IC50 [6] was 0.79 µM. For the same compound, the IC50 [7] was 0.09 µM.

`CN(C)CCNC(=O)c1ccc(C(=O)NCCN(C)C)c2c1C(=O)c1ccccc1C2=O` was tested, and the IC50 [8] was “Unachievable”, the IC50 [1] was 5 µM and the IC50 [9] was “Unachievable”. It also gave an IC50 [3] of 73 µM, an IC50 [4] of 63 µM and an IC50 [5] greater than 10 µM. The IC50 [6] was 4.5 µM.

Work on `CN(C)CCNCc1c2ccccc2c(CNCCN(C)C)c2ccccc12` yielded an IC50 [1] of 3 µM, an IC50 [2] of 5 µM and an IC50 [3] of 3.6 µM. It also gave an IC50 [4] of 3.3 µM, an IC50 [5] of 3 µM and an IC50 [6] of 4 µM. The IC50 [7] was 5 µM.

Work on `CN(C)CCNCc1ccc(CNCCN(C)C)c2cc3ccccc3cc12` yielded an IC50 [1] of 4 µM, an IC50 [2] of 8.1 µM and an IC50 [3] of 8.3 µM. For the same compound, the IC50 [4] was 2.8 µM, the IC50 [5] was 7 µM and the IC50 [6] was 17 µM. For the same compound, the IC50 [7] was 19 µM.

For `CN(C)CCNCc1ccc(CBr)c2cc3ccccc3cc12`, the IC50 [1] was 4 µM, the IC50 [9] was “Unachievable” and the IC50 [2] was 91 µM. It also gave an IC50 [3] of 188 µM, an IC50 [4] of 52 µM and an IC50 [5] of 12 µM. The IC50 [6] was 15 µM.

For `C(=N\NC1=NCCN1)/c1ccc(/C=N/NC2=NCCN2)c2cc3ccccc3cc12`, the IC50 [1] was 6.7 µM, the IC50 [2] was 5 µM and the IC50 [3] was 13 µM. For the same compound, the IC50 [4] was 2.6 µM, the IC50 [5] was 5.6 µM and the IC50 [6] was 1.6 µM. The IC50 [7] was 0.72 µM.

Compound `CN(C)CCNC(=O)c1ccc(C(=O)NCCN(C)C)c2cc3ccccc3cc12` has an IC50 [1] of 5 µM, an IC50 [2] of 0.71 µM and an IC50 [3] of 29 µM. For the same compound, the IC50 [4] was 4.2 µM, the IC50 [5] was 3.3 µM and the IC50 [6] was 1.4 µM. It also gave an IC50 [7] of 3.2 µM.
